Data reported in US20120177797A1, “TASTE ENHANCING AGENT” (J-OIL MILLS, INC., priority 2009, published 2012).

How the values were obtained:
Assay type in all cases: in vivo
[1] = Sensory evaluation, intensity of umami in aqueous MSG solution; conditions: 10 ppm added to 0.2% MSG; additive-free = 3.0; 1.0 much weaker to 5.0 much stronger; mean of three individuals, nose clip
Method: (§1) All sensory evaluation of taste was performed by individuals wearing a nose clip. The evaluation was performed by groups of three individuals, and the scores were averaged.
(§2) To a 0.2% aqueous sodium glutamate (MSG) solution (=umami), a 0.8% aqueous salt (NaCl) solution (=saltiness) and a 2% aqueous sucrose solution (=sweetness) were added 10 ppm linear aliphatic aldehydes having 3-12 carbon atoms shown in Table 1, respectively. Sensory evaluation was performed in which intensity of taste sensed when each of the aqueous solutions is introduced into the mouth is defined as “Intensity of umami” for the aqueous MSG solution, “Intensity of saltiness” for the aqueous NaCl solution and “Intensity of sweetness” for the aqueous sucrose solution. The score of aldehyde-free taste intensity was set to 3.0, and taste intensity upon addition of aldehyde was evaluated as follows. The results are shown in Table 1. • 1.0: Much weaker • 2.0: Weaker • 3.0: Similar • 4.0: Stronger • 5.0: Much Stronger
(§3) To a 0.2% aqueous sodium glutamate (MSG) solution (=umami), a 0.8% aqueous salt (NaCl) solution (=saltiness), a 2% aqueous sucrose solution (=sweetness) were added 10 ppm linear aliphatic alcohols having 2-11 carbon atoms, respectively. Sensory evaluation was performed in which intensity of taste sensed when each of the aqueous solutions is introduced into the mouth is defined as “Intensity of umami” for the aqueous MSG solution, “Intensity of saltiness” for the aqueous NaCl solution and “Intensity of sweetness” for the aqueous sucrose solution. The score of alcohol-free taste intensity was set to 3.0, and taste intensity upon addition was evaluated as follows. The results are shown in Table 3. • 1.0: Much weaker • 2.0: Weaker • 3.0: Similar • 4.0: Stronger • 5.0: Much stronger
(§4) To a 0.2% aqueous sodium glutamate (MSG) solution (=umami), a 0.8% aqueous salt (NaCl) solution (=saltiness), a 2% aqueous sucrose solution (=sweetness) were added 1 ppm n-hexanal and 1ppm 1-octene-3-ol each, respectively. Sensory evaluation was performed in which the intensity of taste sensed when each of the aqueous solutions is introduced into the mouth is defined as “Intensity of umami” for the aqueous MSG solution, “Intensity of saltiness” for the aqueous NaCl solution and “Intensity of sweetness” for the aqueous sucrose solution. The score of additive-free taste intensity was set to 3.0, and taste intensity upon addition was evaluated as follows. The results are shown in Table 9. • 1.0: Much weaker • 2.0: Weaker • 3.0: Similar • 4.0: Stronger • 5.0: Much stronger

[2] = Sensory evaluation, intensity of saltiness in aqueous NaCl solution; conditions: 10 ppm added to 0.8% NaCl; additive-free = 3.0; 1.0 much weaker to 5.0 much stronger
Method: as §1, §2, §3, §4

[3] = Sensory evaluation, intensity of sweetness in aqueous sucrose solution; conditions: 10 ppm added to 2% sucrose; additive-free = 3.0; 1.0 much weaker to 5.0 much stronger
Method: as §1, §2, §3, §4

[4] = Sensory evaluation whether salt usage can be reduced; conditions: nothing added, for comparison, 0.5% NaCl solution = 3.0
Method: as §1
Evaluation was conducted to find whether salt usage can be reduced by the taste enhancing effects. To a 0.5% aqueous NaCl solution was added 10 ppm n-hexanal or 10 ppm 1-octen-3-ol. Taste intensity was determined in the sensory evaluation where the taste intensity of the 0.5% NaCl solution was set to 3.0. For comparison, sensory evaluation was also performed for a 0.8% and 0.6% concentration of aqueous NaCl solution. The sensory evaluation was evaluated as follows. The results are shown in Table 5. • 1.0: Much weaker • 2.0: Weaker • 3.0: Similar • 4.0: Stronger • 5.0: Much stronger

[5] = Sensory evaluation, intensity of umami in diluted soy sauce; conditions: 10 ppm in soy sauce diluted to 2% in water; aldehyde-free = 3.0; scale 1.0-5.0
Method: as §1
(§5) Sensory evaluation was performed for “Intensity of Umani ” and “ Intensity of Saltiness “. The score of aldehyde-free taste intensity was set to 3.0, and taste intensity upon addition was evaluated as follows. The results are shown in Table 7. • 1.0: Much weaker • 2.0: Weaker • 3.0: Similar • 4.0: Stronger • 5.0: Much stronger

[6] = Sensory evaluation, intensity of saltiness in diluted soy sauce; conditions: 10 ppm in soy sauce diluted to 2% in water; aldehyde-free = 3.0; scale 1.0-5.0
Method: as §1, §5

[7] = Sensory evaluation, intensity of sweetness in whipped cream; conditions: 100 ppm in whipped cream; aldehyde-free = 3.0; scale 1.0-5.0
Method: as §1
Sensory evaluation was performed for “Intensity of sweetness”. The score of aldehyde-free taste intensity was set to 3.0, and taste intensity upon addition was evaluated as follows. The results are shown in Table 8. • 1.0: Much weaker • 2.0: Weaker • 3.0: Similar • 4.0: Stronger • 5.0: Much stronger

[8] = Sensory evaluation, intensity of umami in aqueous MSG solution; conditions: 10 ppm added to 0.2% MSG; additive-free = 3.0; 1.0 much weaker to 5.0 much stronger; mean of three individuals, nose clip; remark: listed apart in the source
[9] = Sensory evaluation, intensity of saltiness in aqueous NaCl solution; conditions: 10 ppm added to 0.8% NaCl; additive-free = 3.0; 1.0 much weaker to 5.0 much stronger; remark: listed apart in the source
[10] = Sensory evaluation, intensity of sweetness in aqueous sucrose solution; conditions: 10 ppm added to 2% sucrose; additive-free = 3.0; 1.0 much weaker to 5.0 much stronger; remark: listed apart in the source

Structure (SMILES) | Intensity of umami, Aqueous MSG solution [1] | Intensity of saltiness, Aqueous NaCl solution [2] | Intensity of sweetness, Aqueous sucrose solution [3] | other results
C=CC(O)CCCCCCC (centres unmarked) [1-decene-3-ol] | 3.2 | 3.2 | 3.5 | –
C=CC(O)CCC (centres unmarked) [1-hexene-3-ol] | 3.2 | 3.2 | 3.5 | –
CCCCCC=CC=CC=O [2,4-decadienal] | 3.5 | 3.5 | 3.5 | –
C=CCCCC=CCO [2,7-octadienol] | 3.2 | 3.2 | 3.5 | –
CCCCO [Example 1-butanol, 1-butanol] | 3.2 | 3.2 | 3.2 | –
C=CC(C)O (centres unmarked) [Example 1-buten-3-ol, 1-buten-3-ol] | 3.2 | 3.2 | 3.5 | –
CCCCCCCCCCO [Example 1-decanol, 1-decanol] | 3.2 | 3.2 | 3.2 | –
CCCCCCCO [Example 1-heptanol, 1-heptanol] | 3.2 | 3.2 | 3.2 | –
CCCCCCO [Example 1-hexanol, 1-hexanol] | 3.2 | 3.2 | 3.2 | –
CCCCCCCCCO [Example 1-nonanol, 1-nonanol] | 3.2 | 3.2 | 3.2 | –
CCCCCCCCO [Example 1-octanol, 1-octanol] | 3.2 | 3.2 | 3.2 | –
CCCCCO [Example 1-pentanol, 1-pentanol] | 3.2 | 3.2 | 3.2 | –
CCCCCCCCCCCO [Example 1-undecanol, 1-undecanol, reference compound] | 3.0 | 3.0 | 3.0 | –
CCCC=CC=O [Example 2-hexenal, 2-hexenal] | 3.8 | 3.8 | 3.8 | –
[Cl-].[Na+] [NaCl, sodium chloride, reference compound] | – | – | – | Scores in sensory evaluation (taste intensity, saltiness) ([4]; 0.6% aqueous NaCl solution): 3.5; Scores in sensory evaluation (taste intensity, saltiness) ([4]; 0.8% aqueous NaCl solution): 4.0
CCO [ethanol, reference compound] | 3.0 | 3.0 | 3.0 | –
CCCC=O [n-butanal] | 3.5 | 3.5 | 3.5 | Intensity of umami [5]: 3.5; Intensity of saltiness [6]: 3.5; Intensity of sweetness [7]: 3.5
CCCCCCCCCC=O [n-decanal] | 3.5 | 3.5 | 3.5 | Intensity of umami [5]: 3.5; Intensity of saltiness [6]: 3.5; Intensity of sweetness [7]: 3.5
CCCCCCCCCCCC=O [n-dodecanal, reference compound] | 3.0 | 3.0 | 3.0 | –
CCCCCCC=O [n-heptanal] | 4.5 | 4.5 | 4.0 | Intensity of umami [5]: 4.0; Intensity of saltiness [6]: 4.0; Intensity of sweetness [7]: 4.0
CCCCCCCC=O [n-octanal] | 3.8 | 3.8 | 3.5 | Intensity of umami [5]: 3.5; Intensity of saltiness [6]: 3.5; Intensity of sweetness [7]: 3.5
CCCCC=O [n-pentanal] | 4.5 | 4.5 | 4.0 | Intensity of umami [5]: 4.2; Intensity of saltiness [6]: 4.2; Intensity of sweetness [7]: 4.2
CCC=O [n-propanal] | 3.5 | 3.5 | 3.5 | Intensity of umami [5]: 3.5; Intensity of saltiness [6]: 3.5; Intensity of sweetness [7]: 3.5
CCCCCCCCCCC=O [n-undecanal, reference compound] | 3.0 | 3.0 | 3.0 | –
CCCO [propanol, reference compound] | – | – | – | Intensity of umami, Aqueous MSG solution [8]: 3.0; Intensity of saltiness, Aqueous NaCl solution [9]: 3.0; Intensity of sweetness, Aqueous sucrose solution [10]: 3.0
